Data published in ChEMBL document CHEMBL1139777, “Discovery of a highly potent series of oxazole-based phosphodiesterase 4 inhibitors” (Bioorg Med Chem Lett, 2007).

Columns and labels:
[1] = molecular target: Dual 3',5'-cyclic-AMP and -GMP phosphodiesterase 11A (Homo sapiens, UniProt Q9HCR9); assay: Inhibition of PDE11
[2] = molecular target: cAMP and cAMP-inhibited cGMP 3',5'-cyclic phosphodiesterase 10A (Homo sapiens, UniProt Q9Y233); assay: Inhibition of PDE10
[3] = molecular target: T1, 3',5'-cyclic-AMP phosphodiesterase 4B (Homo sapiens, UniProt Q07343); assay: Inhibition of PDE4B
[4] = molecular target: T1, 3',5'-cyclic-AMP phosphodiesterase 4B; assay: Inhibition of PDE4B at 1 uM
Homo sapiens [5] = species on record: Homo sapiens; assay: Selectivity for PDE4B over PDE11
Homo sapiens [6] = species on record: Homo sapiens; assay: Selectivity for PDE4B over PDE10
Rattus norvegicus [7] = assay: Antiinflammatory activity in po dosed rat lipopolysaccharide-induced pulmonary inflammation model assessed as inhibition of polymorphonuclear cells; type: functional
[8] = Cmax in rat at 10 mg/kg, po; type: ADME, organism-based; set-up: dose 10 mg/kg, route oral; conditions: in vivo
[9] = Cmax in cynomolgus monkey at 30 mg/kg, po; type: ADME, organism-based, Macaca fascicularis; set-up: dose 30 mg/kg, route oral; conditions: in vivo
Rattus norvegicus [10] = assay: Antiinflammatory activity in rat lipopolysaccharide-induced pulmonary inflammation model assessed as inhibition of polymorphonuclear cells at 3 mg/kg, po; type: functional
Cynomolgus monkey = assay: AUC in cynomolgus monkey at 30 mg/kg, po; type: ADME, organism-based, Macaca fascicularis, Plasma; set-up: dose 30 mg/kg, route oral; conditions: in vivo
Rattus norvegicus [11] = assay: Antiinflammatory activity in rat lipopolysaccharide-induced pulmonary inflammation model assessed as inhibition of polymorphonuclear cells at 1 mg/kg, po; type: functional

Chain of cAMP and cAMP-inhibited cGMP 3',5'-cyclic phosphodiesterase 10A (Q9Y233 whole entry): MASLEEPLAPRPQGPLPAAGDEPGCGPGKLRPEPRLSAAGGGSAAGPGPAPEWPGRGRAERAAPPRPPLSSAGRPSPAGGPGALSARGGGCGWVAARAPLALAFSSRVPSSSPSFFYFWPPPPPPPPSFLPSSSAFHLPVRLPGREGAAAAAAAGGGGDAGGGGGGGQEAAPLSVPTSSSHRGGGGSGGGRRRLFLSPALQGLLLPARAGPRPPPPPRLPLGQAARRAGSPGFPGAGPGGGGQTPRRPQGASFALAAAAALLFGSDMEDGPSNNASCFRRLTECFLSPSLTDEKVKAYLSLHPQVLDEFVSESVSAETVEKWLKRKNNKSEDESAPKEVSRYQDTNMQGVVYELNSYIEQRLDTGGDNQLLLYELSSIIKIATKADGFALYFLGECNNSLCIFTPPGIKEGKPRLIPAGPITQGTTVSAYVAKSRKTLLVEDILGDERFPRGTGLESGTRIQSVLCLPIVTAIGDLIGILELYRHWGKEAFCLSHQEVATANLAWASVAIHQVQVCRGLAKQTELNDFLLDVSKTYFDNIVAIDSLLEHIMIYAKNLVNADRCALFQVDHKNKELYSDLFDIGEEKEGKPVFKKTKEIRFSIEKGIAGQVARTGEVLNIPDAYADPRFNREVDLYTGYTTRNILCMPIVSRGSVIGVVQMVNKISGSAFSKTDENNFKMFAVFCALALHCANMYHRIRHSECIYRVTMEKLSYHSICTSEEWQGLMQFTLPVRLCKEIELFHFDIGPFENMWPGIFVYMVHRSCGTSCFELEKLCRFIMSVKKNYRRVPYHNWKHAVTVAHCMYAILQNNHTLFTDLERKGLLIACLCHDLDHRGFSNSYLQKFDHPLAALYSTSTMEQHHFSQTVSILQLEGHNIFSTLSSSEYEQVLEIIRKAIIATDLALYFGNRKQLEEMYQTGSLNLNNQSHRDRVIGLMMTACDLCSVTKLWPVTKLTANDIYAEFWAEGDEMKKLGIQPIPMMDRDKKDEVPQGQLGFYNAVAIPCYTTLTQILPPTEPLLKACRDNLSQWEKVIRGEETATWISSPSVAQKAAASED
Chain of Dual 3',5'-cyclic-AMP and -GMP phosphodiesterase 11A (Q9HCR9 whole entry): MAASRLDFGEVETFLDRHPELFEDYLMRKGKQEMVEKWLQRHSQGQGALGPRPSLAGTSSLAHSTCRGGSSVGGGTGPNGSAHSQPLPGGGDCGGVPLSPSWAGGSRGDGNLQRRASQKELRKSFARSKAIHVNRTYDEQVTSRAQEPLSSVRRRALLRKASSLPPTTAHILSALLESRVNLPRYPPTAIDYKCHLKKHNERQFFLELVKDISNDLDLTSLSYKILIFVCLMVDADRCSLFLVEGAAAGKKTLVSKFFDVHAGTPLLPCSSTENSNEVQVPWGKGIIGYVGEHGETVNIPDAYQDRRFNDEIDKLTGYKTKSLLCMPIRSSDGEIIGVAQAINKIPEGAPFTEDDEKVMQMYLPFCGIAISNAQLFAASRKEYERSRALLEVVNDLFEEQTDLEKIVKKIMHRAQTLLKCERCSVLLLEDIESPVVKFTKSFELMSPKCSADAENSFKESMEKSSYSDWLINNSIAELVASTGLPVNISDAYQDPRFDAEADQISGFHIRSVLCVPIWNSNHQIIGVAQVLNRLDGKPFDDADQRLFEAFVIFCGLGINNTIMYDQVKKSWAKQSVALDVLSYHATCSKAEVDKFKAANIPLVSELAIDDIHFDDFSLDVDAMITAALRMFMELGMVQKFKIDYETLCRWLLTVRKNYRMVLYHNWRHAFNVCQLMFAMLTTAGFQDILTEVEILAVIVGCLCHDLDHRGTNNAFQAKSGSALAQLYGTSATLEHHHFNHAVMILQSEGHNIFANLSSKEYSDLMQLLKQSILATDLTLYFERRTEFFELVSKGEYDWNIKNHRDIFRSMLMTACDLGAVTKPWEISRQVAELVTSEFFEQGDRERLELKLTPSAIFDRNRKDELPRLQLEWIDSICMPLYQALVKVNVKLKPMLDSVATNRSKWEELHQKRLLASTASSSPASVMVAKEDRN
T1 sequence (Q07343 whole entry): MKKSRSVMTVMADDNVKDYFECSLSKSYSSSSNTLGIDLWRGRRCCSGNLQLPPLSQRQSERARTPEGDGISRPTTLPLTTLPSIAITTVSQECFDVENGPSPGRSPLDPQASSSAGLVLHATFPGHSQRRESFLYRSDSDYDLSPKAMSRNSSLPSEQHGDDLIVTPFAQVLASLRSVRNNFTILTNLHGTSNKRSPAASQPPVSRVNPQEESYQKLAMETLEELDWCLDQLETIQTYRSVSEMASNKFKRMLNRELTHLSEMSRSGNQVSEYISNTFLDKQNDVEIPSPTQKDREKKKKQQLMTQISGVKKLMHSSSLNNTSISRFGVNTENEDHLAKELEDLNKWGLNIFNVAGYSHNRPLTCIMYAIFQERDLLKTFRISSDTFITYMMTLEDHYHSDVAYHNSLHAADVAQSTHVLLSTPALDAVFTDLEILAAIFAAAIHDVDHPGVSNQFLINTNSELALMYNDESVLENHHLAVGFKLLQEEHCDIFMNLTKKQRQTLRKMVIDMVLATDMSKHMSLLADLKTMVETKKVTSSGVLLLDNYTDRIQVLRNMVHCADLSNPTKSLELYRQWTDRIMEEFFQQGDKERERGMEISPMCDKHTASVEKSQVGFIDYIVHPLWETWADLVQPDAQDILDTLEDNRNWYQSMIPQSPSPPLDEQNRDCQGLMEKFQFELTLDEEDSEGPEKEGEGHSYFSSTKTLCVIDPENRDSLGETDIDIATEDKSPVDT

Structure (SMILES) | IC50 [1] | IC50 [2] | IC50 [3] | other results
COc1ccc(-c2nc(C(N)=O)c(CN3CCCCC3)o2)c2ccc(C(F)(F)F)nc12 | – | – | – | inhibition [4]: 27%
CCN(CC)Cc1oc(-c2ccc(OC)c3nc(C(F)(F)F)ccc23)nc1C(N)=O | – | – | – | inhibition [4]: 21%
COc1ccc(-c2nc(C(N)=O)c(CNC3CCCC3)o2)c2ccc(C(F)(F)F)nc12 | – | – | – | inhibition [4]: 39%
COc1ccc(-c2nc(C(=O)N3CCN(C(=O)c4cc(C)[nH]n4)CC3)c(CN)o2)c2ccc(C(F)(F)F)nc12 | 1000 nM | 1500 nM | 0.5 nM | Selectivity ratio (Homo sapiens [5]): 1000; Selectivity ratio (Homo sapiens [6]): 1000
COc1ccc(-c2nc(C(=O)N3CCN(C(=O)c4ccccn4)CC3)c(CN)o2)c2ccc(C(F)(F)F)nc12 | 2100 nM | 1900 nM | 1 nM | Selectivity ratio (Homo sapiens [5]): 1000; Selectivity ratio (Homo sapiens [6]): 1000; ED50 (Rattus norvegicus [7]): 0.6 mg/kg; Cmax [8]: 730 nM
COc1ccc(-c2nc(C(=O)N3CC[C@@H](NC(=O)OC(C)(C)C)C3)c(CN)o2)c2ccc(C(F)(F)F)nc12 | 820 nM | 130 nM | 1.4 nM | ED50 (Rattus norvegicus [7]): 0.2 mg/kg; Cmax [8]: 610 nM
COc1ccc(-c2nc(C(N)=O)c(CN3CCCC3)o2)c2ccc(C(F)(F)F)nc12 | – | – | – | inhibition [4]: 31%
COc1cc(OC)nc(N2CCN(C(=O)c3nc(-c4ccc(OC)c5nc(C(F)(F)F)ccc45)oc3CN)CC2)n1 | 970 nM | 760 nM | 2.2 nM | ED50 (Rattus norvegicus [7]): 2 mg/kg; Cmax [8]: 230 nM
COc1ccc(-c2nc(C(=O)N3CCC4(CC3)C(=O)NCN4c3ccccc3)c(CN)o2)c2ccc(C(F)(F)F)nc12 | 130 nM | 20 nM | 1 nM | Selectivity ratio (Homo sapiens [5]): 130; Selectivity ratio (Homo sapiens [6]): 20
COc1ccc(-c2nc(C(=O)N3CCN(c4ncccn4)CC3)c(CN)o2)c2ccc(C(F)(F)F)nc12 | 2000 nM | 430 nM | 19 nM | Cmax [9]: 13000 nM; inhibition in vivo at 3 mg/kg (Rattus norvegicus [10]): 64%; AUC (Cynomolgus monkey): 130 µM·h; Cmax [8]: 9500 nM
COc1ccc(C(=O)Nc2c(Cl)cncc2Cl)c2ccc(C(F)(F)F)nc12 | 7300 nM | > 10000 nM | 20 nM | –
COc1ccc(-c2nc(C(N)=O)c(CN(C)C)o2)c2ccc(C(F)(F)F)nc12 | – | – | – | inhibition [4]: 40%
COc1ccc(-c2nc(C(=O)N3CCN(S(=O)(=O)N(C)C)CC3)c(CN)o2)c2ccc(C(F)(F)F)nc12 | 3300 nM | 1700 nM | 1.2 nM | Selectivity ratio (Homo sapiens [5]): 1000; Selectivity ratio (Homo sapiens [6]): 1000
CO/N=C(\c1ccccn1)C1CCN(C(=O)c2nc(-c3ccc(OC)c4nc(C(F)(F)F)ccc34)oc2CN)CC1 | 1500 nM | 120 nM | 1.6 nM | inhibition in vivo at 1 mg/kg (Rattus norvegicus [11]): 45%; Cmax [8]: 610 nM
COc1ccc(-c2nc(C(=O)N3CCC(O)(c4ccccc4)CC3)c(CN)o2)c2ccc(C(F)(F)F)nc12 | 500 nM | 600 nM | 2 nM | ED50 (Rattus norvegicus [7]): 2 mg/kg; Cmax [8]: 170 nM
COc1ccc(C(=O)Nc2c(Cl)c[n+]([O-])cc2Cl)c2ccc(C(F)(F)F)nc12 [SCH-351591] | > 10000 nM | > 10000 nM | 60 nM | –
COc1ccc(-c2nc(C(=O)N3CCN(C(=O)OC(C)(C)C)CC3)c(CN)o2)c2ccc(C(F)(F)F)nc12 | 600 nM | 1100 nM | 4.3 nM | inhibition in vivo at 3 mg/kg (Rattus norvegicus [10]): 56%; Cmax [8]: 1400 nM

Continued, in another order:

IC50 [1] | IC50 [2] | IC50 [3] | Structure (SMILES) | other results
7600 nM | 2800 nM | 24 nM | COc1ccc(-c2nc(C(N)=O)c(CN)o2)c2ccc(C(F)(F)F)nc12 | –
– | – | 80 nM | COc1ccc(-c2nc(CN)c(C)o2)c2ccc(C(F)(F)F)nc12 | –
– | – | 390 nM | COc1ccc(-c2nc(C(=O)O)c(C)o2)c2ccc(C(F)(F)F)nc12 | –
– | – | 580 nM | CNCc1oc(-c2ccc(OC)c3nc(C(F)(F)F)ccc23)nc1C(N)=O | –
– | – | 76 nM | COc1ccc(-c2nc(CN)c(C(N)=O)o2)c2ccc(C(F)(F)F)nc12 | –
– | – | 470 nM | COc1ccc(-c2nc(CO)c(C)o2)c2ccc(C(F)(F)F)nc12 | –
– | – | 49 nM | COc1ccc(-c2nc(C(=O)N3CCCCC3)c(CN)o2)c2ccc(C(F)(F)F)nc12 | –
– | – | 350 nM | COc1ccc(-c2nc(C)co2)c2ccc(C(F)(F)F)nc12 | –
– | – | 31 nM | COc1ccc(-c2nc(C(=O)N3CCC3)c(CN)o2)c2ccc(C(F)(F)F)nc12 | –
– | – | 670 nM | CCc1coc(-c2ccc(OC)c3nc(C(F)(F)F)ccc23)n1 | –
– | – | 110 nM | CNC(=O)c1nc(-c2ccc(OC)c3nc(C(F)(F)F)ccc23)oc1CN | –
– | – | 17 nM | COc1ccc(-c2nc(C(=O)N3CCCC3)c(CN)o2)c2ccc(C(F)(F)F)nc12 | –
– | – | 310 nM | COc1ccc(-c2nc(C=O)c(C)o2)c2ccc(C(F)(F)F)nc12 | –
– | – | 62 nM | CCN(CC)C(=O)c1nc(-c2ccc(OC)c3nc(C(F)(F)F)ccc23)oc1CN | –
– | – | 470 nM | COc1ccc(-c2nc(CCl)c(C)o2)c2ccc(C(F)(F)F)nc12 | –
– | – | 53 nM | COc1ccc(-c2nc(C(=O)O)c(CN)o2)c2ccc(C(F)(F)F)nc12 | –
– | – | 88 nM | COc1ccc(-c2nc(C(N)=O)c(C)o2)c2ccc(C(F)(F)F)nc12 | –
